Measured values: ChEMBL document CHEMBL2380247, “Synthesis and biological evaluation of novel aliphatic amido-quaternary ammonium salts for anticancer chemotherapy: part II” (2013)

What was measured:
Format in all cases: functional
[1] = system: MDA-MB-231; experiment: Antiproliferative activity against human MDA-MB-231 cells at 0.3 uM by SRB assay
[2] = system: NCI-H23; experiment: Antiproliferative activity against human NCI-H23 cells at 3 uM by SRB assay
[3] = system: PC-3; experiment: Antiproliferative activity against human PC3 cells at 1 uM by SRB assay
[4] = system: NCI-H23; experiment: Antiproliferative activity against human NCI-H23 cells by SRB assay
[5] = system: ACHN; experiment: Antiproliferative activity against human ACHN cells at 3 uM by SRB assay
[6] = system: NCI-H23; experiment: Antiproliferative activity against human NCI-H23 cells at 0.3 uM by SRB assay
[7] = system: NUGC-3; experiment: Antiproliferative activity against human NUGC3 cells at 3 uM by SRB assay
[8] = system: PC-3; experiment: Antiproliferative activity against human PC3 cells at 3 uM by SRB assay
[9] = system: PC-3; experiment: Antiproliferative activity against human PC3 cells at 0.3 uM by SRB assay
[10] = system: PC-3; experiment: Antiproliferative activity against human PC3 cells at 0.1 uM by SRB assay
[11] = system: ACHN; experiment: Antiproliferative activity against human ACHN cells at 10 uM by SRB assay
[12] = system: NUGC-3; experiment: Antiproliferative activity against human NUGC3 cells at 0.3 uM by SRB assay
[13] = system: PC-3; experiment: Antiproliferative activity against human PC3 cells at 10 uM by SRB assay
[14] = system: HCT-15; experiment: Antiproliferative activity against human HCT15 cells at 3 uM by SRB assay
[15] = system: HCT-15; experiment: Antiproliferative activity against human HCT15 cells by SRB assay
[16] = system: HCT-15; experiment: Antiproliferative activity against human HCT15 cells at 0.3 uM by SRB assay
[17] = system: MDA-MB-231; experiment: Antiproliferative activity against human MDA-MB-231 cells at 10 uM by SRB assay
[18] = system: MDA-MB-231; experiment: Antiproliferative activity against human MDA-MB-231 cells at 1 uM by SRB assay
[19] = system: NCI-H23; experiment: Antiproliferative activity against human NCI-H23 cells at 1 uM by SRB assay
[20] = system: NUGC-3; experiment: Antiproliferative activity against human NUGC3 cells at 1 uM by SRB assay
[21] = system: MDA-MB-231; experiment: Antiproliferative activity against human MDA-MB-231 cells by SRB assay
[22] = system: MDA-MB-231; experiment: Antiproliferative activity against human MDA-MB-231 cells at 0.1 uM by SRB assay
[23] = system: NCI-H23; experiment: Antiproliferative activity against human NCI-H23 cells at 10 uM by SRB assay
[24] = system: NUGC-3; experiment: Antiproliferative activity against human NUGC3 cells at 0.1 uM by SRB assay
[25] = system: ACHN; experiment: Antiproliferative activity against human ACHN cells by SRB assay
[26] = system: NCI-H23; experiment: Antiproliferative activity against human NCI-H23 cells at 0.1 uM by SRB assay
[27] = system: HCT-15; experiment: Antiproliferative activity against human HCT15 cells at 10 uM by SRB assay
[28] = system: ACHN; experiment: Antiproliferative activity against human ACHN cells at 1 uM by SRB assay
[29] = system: MDA-MB-231; experiment: Antiproliferative activity against human MDA-MB-231 cells at 3 uM by SRB assay
[30] = system: ACHN; experiment: Antiproliferative activity against human ACHN cells at 0.3 uM by SRB assay
[31] = system: ACHN; experiment: Antiproliferative activity against human ACHN cells at 0.1 uM by SRB assay
[32] = system: PC-3; experiment: Antiproliferative activity against human PC3 cells by SRB assay
[33] = system: HCT-15; experiment: Antiproliferative activity against human HCT15 cells at 0.1 uM by SRB assay
[34] = system: NUGC-3; experiment: Antiproliferative activity against human NUGC3 cells by SRB assay
[35] = system: NUGC-3; experiment: Antiproliferative activity against human NUGC3 cells at 10 uM by SRB assay
[36] = system: HCT-15; experiment: Antiproliferative activity against human HCT15 cells at 1 uM by SRB assay

Row | GI50 [4] | GI50 [15] | Structure (SMILES) | growth, % of control at 0.3 µM [1] | growth, % of control at 3 µM [2] | growth, % of control at 1 µM [3] | growth, % of control at 3 µM [5] | growth, % of control at 0.3 µM [6] | growth, % of control at 3 µM [7] | growth, % of control at 3 µM [8] | growth, % of control at 0.3 µM [9] | growth, % of control at 0.1 µM [10] | growth, % of control at 10 µM [11] | growth, % of control at 0.3 µM [12] | growth, % of control at 10 µM [13] | growth, % of control at 3 µM [14] | growth, % of control at 0.3 µM [16] | growth, % of control at 10 µM [17] | growth, % of control at 1 µM [18] | growth, % of control at 1 µM [19] | growth, % of control at 1 µM [20] | also measured
1 | 1220 nM | > 10000 nM | CCCCCCCCCCCCCCCC(=O)N(C)CC[N+](CC)(CC)Cc1ccccc1 | 96.5% | 39.7% | 25.8% | 28% | 112% | 1.3% | 1.4% | 80.4% | 86.6% | 1.6% | 84.8% | -13.9% | 92.8% | 101% | -4.4% | 82.1% | 75.4% | 31.4% | GI50 [21]: 1130 nM; growth, % of control at 0.1 µM [22]: 105%; growth, % of control at 10 µM [23]: 6.5%; growth, % of control at 0.1 µM [24]: 92.7%; GI50 [25]: 600 nM; growth, % of control at 0.1 µM [26]: 113%; growth, % of control at 10 µM [27]: 71.1%; growth, % of control at 1 µM [28]: 52.3%; growth, % of control at 3 µM [29]: 33.2%; growth, % of control at 0.3 µM [30]: 86.3%; growth, % of control at 0.1 µM [31]: 83.4%; GI50 [32]: 310 nM; growth, % of control at 0.1 µM [33]: 100%; GI50 [34]: 360 nM; growth, % of control at 10 µM [35]: -9.3%; growth, % of control at 1 µM [36]: 99.4%
2 | 660 nM | 2830 nM | CCCCCCCCCCCCCC(=O)N(C)CCC[N+](C)(C)Cc1ccccc1 | 106% | 14.7% | 56.5% | 72.3% | 80% | 8.51% | 4.38% | 87.4% | 101% | 1.92% | 90% | -13.1% | 78.5% | 86.7% | -2.09% | 97.2% | 70.4% | 43.8% | GI50 [21]: 1410 nM; growth, % of control at 0.1 µM [22]: 105%; growth, % of control at 10 µM [23]: -11.5%; growth, % of control at 0.1 µM [24]: 84.5%; GI50 [25]: 1890 nM; growth, % of control at 0.1 µM [26]: 81%; growth, % of control at 10 µM [27]: 25.1%; growth, % of control at 1 µM [28]: 99.3%; growth, % of control at 3 µM [29]: 44.2%; growth, % of control at 0.3 µM [30]: 109%; growth, % of control at 0.1 µM [31]: 107%; GI50 [32]: 530 nM; growth, % of control at 0.1 µM [33]: 89.9%; GI50 [34]: 430 nM; growth, % of control at 10 µM [35]: -11.6%; growth, % of control at 1 µM [36]: 93.6%
